Source: paper PMC10646112, “Mechanistic insights into glycoside 3-oxidases involved in C-glycoside metabolism in soil microorganisms” (Nature Communications, 2023)

Key:
PsG3Ox [1] = biological target: T1, PsG3Ox (Pseudarthrobacter siccitolerans, UniProt A0A024H8G7); test: tryptophan fluorescence quenching titration of apo-enzyme; crystal structure; type: biochemical; design: gene ARTSIC4J27_4061; Apo-PsG3Ox
PsG3Ox [2] = biological target: T1, PsG3Ox; test: inhibition of D-Glc oxidation, steady-state kinetics (Lineweaver-Burk, secondary plot of slopes); type: biochemical; design: gene ARTSIC4J27_4061

T1 sequence (A0A024H8G7 1-519): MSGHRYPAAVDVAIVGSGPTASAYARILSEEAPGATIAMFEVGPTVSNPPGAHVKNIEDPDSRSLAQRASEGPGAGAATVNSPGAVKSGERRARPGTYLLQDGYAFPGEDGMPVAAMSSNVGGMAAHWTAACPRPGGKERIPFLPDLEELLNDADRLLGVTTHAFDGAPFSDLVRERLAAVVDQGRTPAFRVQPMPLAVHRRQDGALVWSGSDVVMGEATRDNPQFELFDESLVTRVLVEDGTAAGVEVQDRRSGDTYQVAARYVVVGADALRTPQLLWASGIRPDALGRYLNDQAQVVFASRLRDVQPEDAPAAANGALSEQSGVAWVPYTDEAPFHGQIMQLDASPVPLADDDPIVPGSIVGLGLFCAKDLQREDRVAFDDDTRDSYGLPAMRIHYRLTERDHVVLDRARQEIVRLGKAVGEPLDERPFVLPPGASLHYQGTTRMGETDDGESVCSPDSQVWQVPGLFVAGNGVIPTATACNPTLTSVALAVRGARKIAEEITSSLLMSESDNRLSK

SMILES	Kd (PsG3Ox [1])	Ki (PsG3Ox [2])
Cc1cc2nc3c(=O)[nH]c(=O)nc-3n(C[C@H](O)[C@H](O)[C@H](O)COP(=O)(O)OP(=O)(O)OC[C@H]3O[C@@H](n4cnc5c(N)ncnc54)[C@H](O)[C@@H]3O)c2cc1C [FAD]	0.2 µM	–
C[C@@H]1O[C@@H](OC[C@H]2O[C@@H](Oc3c(-c4ccc(O)c(O)c4)oc4cc(O)cc(O)c4c3=O)[C@H](O)[C@@H](O)[C@@H]2O)[C@H](O)[C@H](O)[C@H]1O [rutin]	–	100 µM
